{
  "source": "patent US5538973A",
  "about": "“Imidazole derivative, pharmaceutical use thereof, and intermediate therefor” (Kyoto Pharmaceutical Industries, Ltd., priority 1992, dated 1996)",
  "key": {"synthesis of TXA2": {"test_system": "synthesis of TXA2", "assay": "Inhibitory action on synthesis of TXA2 (PGH2 substrate, aspirin-treated platelets, TXB2 by RIA)", "assay_type": "cell-based", "settings": "Platelet, read-out: Exp. 1 (IC50) inhibitory action on synthesis of TXA2", "protocol": "Prostaglandin H2 (PGH2) was added as a substrate to an aspirin-treated platelet floating solution, and the mixture was incubated at 37° C. The resultant TXA2 was converted to TXB2, and measured by RIA method. The test drug was added 10 minutes before the addition of PGH2.\n(§1) The experiments 1-4 described above were conducted using the compounds of Examples 1, 2, 6, 8, 12, 14, 19, 23, 27, 30, 34, and 35 to be mentioned below, compound (V), and Terfenadine, the results of which are shown in Table 1."}, "[1]": {"test_system": "blood platelet aggregation", "assay": "Inhibitory action on blood platelet aggregation (arachidonic acid aggregation in rich platelet plasma, nephelometry)", "assay_type": "cell-based", "settings": "arachidonic acid 0.1 mM, test drug added 1 minute before, read-out: Exp. 2 (IC50) inhibitory action on blood platelet aggregation", "protocol": "Arachidonic acid aggregation in rich platelet plasma was determined by nephelometry. The test drug was added 1 minute before the addition of the arachidonic acid (0.1 mM).\nas §1"}, "[2]": {"test_system": "contraction of lung parenchymal specimen by histamine", "assay": "Antihistaminic action: contraction of lung parenchymal specimen caused by histamine", "assay_type": "cell-based", "settings": "test compound 10^-5 M, histamine 10^-5 M, guinea pig lung parenchyma; for inhibition at 10 µM: Cavia porcellus, read-out: Exp. 3 % at which the test compound suppressed contraction by histamine", "protocol": "A lung parenchymal specimen extracted from guinea pig was hung in a nutritive solution at 37° C., and applied a load of 0.5 g. Contraction caused by histamine under aeration of 95% O2 +5% CO2 was recorded isometrically. The inhibition by the test drug with respect to the dose-reaction curve by histamine at 10^-7 -10^-4 was examined.\nas §1\n*% at which the test compound (10^-5 M) suppressed contraction by […]"}, "[3]": {"test_system": "airway contraction by histamine", "assay": "Inhibitory action on contraction of respiratory tract by histamine (Konzett and Roessler method)", "assay_type": "in vivo, guinea pig", "settings": "for inhibition in vivo at 30 mg/kg: Cavia porcellus, po, 1 h, read-out: Exp. 4-1 % at which the test compound suppressed airway contraction by histamine", "protocol": "(§2) A respiratory tract contraction (histamine, LTD4) was intravenously administered to anesthetized guinea pig, and a change in airway resistance was measured in accordance with Konzett end Roessler method. The test drug was orally administered 1 hour before the administration of the contraction inducing agent.\nas §1\n(§3) **% at which the test compound (30 mg/kg, p.o.) suppressed airway\n(§4) contraction by histamine (41) or LTD4 (42)"}, "[4]": {"test_system": "airway contraction by LTD4", "assay": "Inhibitory action on contraction of respiratory tract by LTD4 (Konzett and Roessler method)", "assay_type": "in vivo, guinea pig", "settings": "for inhibition in vivo at 30 mg/kg: Cavia porcellus, po, 1 h, read-out: Exp. 4-2 % at which the test compound suppressed airway contraction by LTD4", "protocol": "as §2, §1, §3, §4"}, "male ddy mice": {"test_system": "male ddy mice", "assay": "Acute toxicity, oral, male ddy mice", "assay_type": "in vivo", "settings": "1000 mg/20 ml/kg orally, 5 male ddy mice", "protocol": "The compound of Example 6 was suspended in a 5% gum arabic solution and orally administered to 5 male ddy mice at 1000 mg/20 ml /kg."}, "[5]": {"settings": "test drug added 10 minutes before PGH2, 37° C."}, "[6]": {"settings": "30 mg/kg, p.o., 1 hour before histamine i.v., anesthetized guinea pig"}, "[7]": {"settings": "30 mg/kg, p.o., 1 hour before LTD4 i.v., anesthetized guinea pig"}},
  "note": "pIC50: −log10 of the molar value. Counter-ions that a name gives are not always drawn. Like-named read-outs stand apart in the source and are kept apart here.",
  "data": [
    {"molecule": "O=C(O)C=Cc1ccc(Cn2ccnc2)cc1", "note": "[Compound (V), reference compound]", "values": [
      {"measurement": "pIC50", "setting": "synthesis of TXA2; [5]", "value": 5.82},
      {"measurement": "pIC50", "setting": "[1]; Platelet", "value": 4.27},
      {"measurement": "inhibition at 10 µM", "setting": "[2]", "value": 8, "unit": "%"},
      {"measurement": "inhibition in vivo at 30 mg/kg", "setting": "[3]; [6]", "value": 4, "unit": "%"},
      {"measurement": "inhibition in vivo at 30 mg/kg", "setting": "[4]; [7]", "value": 57, "unit": "%"}
    ]},
    {"molecule": "O=C(COCCN1CCN(C(c2ccccc2)c2ccccc2)CC1)N1CCc2cc(-n3ccnc3)ccc21", "note": "[Example 1, 1-[2-(4-benzhydryl-1-piperazinyl)ethoxyacetyl]-5-(1H-imidazol-1-yl)indoline oxalate]", "values": [
      {"measurement": "pIC50", "setting": "[1]; Platelet", "value": 5.36},
      {"measurement": "inhibition at 10 µM", "setting": "[2]", "value": 95, "unit": "%"},
      {"measurement": "inhibition in vivo at 30 mg/kg", "setting": "[3]; [6]", "value": 100, "unit": "%"},
      {"measurement": "inhibition in vivo at 30 mg/kg", "setting": "[4]; [7]", "value": 73, "unit": "%"}
    ]},
    {"molecule": "O=C(N1CCN(CCOC(c2ccccc2)c2ccccc2)CC1)N1CCc2cc(-n3ccnc3)ccc21", "note": "[Example 2, 1-{4-[(2-benzhydryloxyethyl)-1-piperazinyl]-carbonyl}-5-(1H-imidazol-1-yl)indoline oxalate]", "values": [
      {"measurement": "pIC50", "setting": "synthesis of TXA2", "value": 5.82},
      {"measurement": "pIC50", "setting": "[1]; Platelet", "value": 5.33},
      {"measurement": "inhibition at 10 µM", "setting": "[2]", "value": 66, "unit": "%"},
      {"measurement": "inhibition in vivo at 30 mg/kg", "setting": "[3]", "value": 100, "unit": "%"},
      {"measurement": "inhibition in vivo at 30 mg/kg", "setting": "[4]", "value": 83, "unit": "%"}
    ]},
    {"molecule": "Cl.Cl.Cl.O=C(O)c1cc2cc(Cn3ccnc3)ccc2n1CCCN1CCN(C(c2ccccc2)c2ccccc2)CC1", "note": "[Example 6, 1-[3-(4-benzhydryl-1-piperazinyl)propyl]-5-(1H-imidazol-1-ylmethyl)-1H-indole-2-carboxylic acid trihydrochloride]", "values": [
      {"measurement": "pIC50", "setting": "synthesis of TXA2; [5]", "value": 6.40},
      {"measurement": "pIC50", "setting": "[1]; listed as Ex. 6, trihydrochloride", "value": 5.09},
      {"measurement": "inhibition at 10 µM", "setting": "[2]", "value": 100, "unit": "%"},
      {"measurement": "inhibition in vivo at 30 mg/kg", "setting": "[3]; [6]", "value": 100, "unit": "%"},
      {"measurement": "Exp. 4-2 % at which the test compound suppressed airway contraction by LTD4", "setting": "[4]; [7]", "value": 75, "unit": "%"},
      {"measurement": "death", "setting": "male ddy mice", "value": "No death was observed"}
    ]},
    {"molecule": "O=C(CN1CCN(CCOC(c2ccccc2)c2ccccc2)CC1)N1CCc2cc(-n3ccnc3)ccc21", "note": "[Example 8]", "values": [
      {"measurement": "pIC50", "setting": "[1]; Platelet", "value": 5.68},
      {"measurement": "inhibition at 10 µM", "setting": "[2]", "value": 55, "unit": "%"},
      {"measurement": "inhibition in vivo at 30 mg/kg", "setting": "[3]", "value": 100, "unit": "%"},
      {"measurement": "inhibition in vivo at 30 mg/kg", "setting": "[4]", "value": 87, "unit": "%"}
    ]},
    {"molecule": "O=C(N1CCN(CCOC(c2ccccc2)c2ccccc2)CC1)N1CCc2cc(Cn3ccnc3)ccc21", "note": "[Example 12]", "values": [
      {"measurement": "pIC50", "setting": "[1]; Platelet", "value": 4.74},
      {"measurement": "inhibition at 10 µM", "setting": "[2]", "value": 61, "unit": "%"},
      {"measurement": "inhibition in vivo at 30 mg/kg", "setting": "[3]", "value": 100, "unit": "%"},
      {"measurement": "inhibition in vivo at 30 mg/kg", "setting": "[4]", "value": 64, "unit": "%"}
    ]},
    {"molecule": "O=C(CN1CCN(CCOC(c2ccccc2)c2ccccc2)CC1)N1CCc2cc(Cn3ccnc3)ccc21", "note": "[Example 14]", "values": [
      {"measurement": "pIC50", "setting": "[1]; Platelet", "value": 4.24},
      {"measurement": "inhibition at 10 µM", "setting": "[2]", "value": 45, "unit": "%"},
      {"measurement": "inhibition in vivo at 30 mg/kg", "setting": "[3]", "value": 100, "unit": "%"},
      {"measurement": "inhibition in vivo at 30 mg/kg", "setting": "[4]", "value": 42, "unit": "%"}
    ]},
    {"molecule": "c1ccc(C(c2ccccc2)N2CCN(CCCn3ccc4cc(-n5ccnc5)ccc43)CC2)cc1", "note": "[Example 19]", "values": [
      {"measurement": "pIC50", "setting": "[1]; Platelet", "value": 4.68},
      {"measurement": "inhibition at 10 µM", "setting": "[2]", "value": 45, "unit": "%"},
      {"measurement": "inhibition in vivo at 30 mg/kg", "setting": "[3]; [6]", "value": 94, "unit": "%"},
      {"measurement": "inhibition in vivo at 30 mg/kg", "setting": "[4]; [7]", "value": 40, "unit": "%"}
    ]},
    {"molecule": "O=C(O)c1cc2cc(Cn3ccnc3)ccc2n1CCCN1CCN(C(c2ccccc2)c2ccccc2)CC1", "note": "[Example 23]", "values": [
      {"measurement": "pIC50", "setting": "[1]; listed as Ex. 23", "value": 4.47},
      {"measurement": "Exp. 3 % at which the test compound suppressed contraction by histamine", "setting": "[2]; 10 µM", "value": 94, "unit": "%"},
      {"measurement": "Exp. 4-1 % at which the test compound suppressed airway contraction by histamine", "setting": "[3]; [6]", "value": 94, "unit": "%"},
      {"measurement": "Exp. 4-2 % at which the test compound suppressed airway contraction by LTD4", "setting": "[4]; [7]", "value": 53, "unit": "%"}
    ]},
    {"molecule": "c1ccc(CC2CCN(CCn3ccc4cc(-n5ccnc5)ccc43)CC2)cc1", "note": "[Example 27]", "values": [
      {"measurement": "pIC50", "setting": "[1]; Platelet", "value": "< 4.00"},
      {"measurement": "inhibition at 10 µM", "setting": "[2]", "value": 58, "unit": "%"},
      {"measurement": "inhibition in vivo at 30 mg/kg", "setting": "[3]; [6]", "value": 100, "unit": "%"},
      {"measurement": "inhibition in vivo at 30 mg/kg", "setting": "[4]; [7]", "value": 68, "unit": "%"}
    ]},
    {"molecule": "O=C(O)c1ccc2c(Cn3ccnc3)cn(CCCN3CCC(Cc4ccccc4)CC3)c2c1", "note": "[Example 30]", "values": [
      {"measurement": "pIC50", "setting": "[1]; Platelet", "value": 5.00},
      {"measurement": "inhibition at 10 µM", "setting": "[2]", "value": 100, "unit": "%"},
      {"measurement": "inhibition in vivo at 30 mg/kg", "setting": "[3]; [6]", "value": 100, "unit": "%"},
      {"measurement": "inhibition in vivo at 30 mg/kg", "setting": "[4]; [7]", "value": 26, "unit": "%"}
    ]},
    {"molecule": "O=C(O)c1ccc2c(c1)c(CCn1ccnc1)cn2CCCN1CCC(Cc2ccccc2)CC1", "note": "[Example 34]", "values": [
      {"measurement": "pIC50", "setting": "[1]; Platelet", "value": "< 4.00"},
      {"measurement": "inhibition at 10 µM", "setting": "[2]", "value": 58, "unit": "%"},
      {"measurement": "inhibition in vivo at 30 mg/kg", "setting": "[3]; [6]", "value": 90, "unit": "%"},
      {"measurement": "inhibition in vivo at 30 mg/kg", "setting": "[4]; [7]", "value": 31, "unit": "%"}
    ]},
    {"molecule": "O=C(O)c1ccc2c(c1)c(CCn1ccnc1)cn2CCCN1CCN(CCOC(c2ccccc2)c2ccccc2)CC1", "note": "[Example 35]", "values": [
      {"measurement": "pIC50", "setting": "[1]; Platelet", "value": 4.15},
      {"measurement": "inhibition at 10 µM", "setting": "[2]", "value": 100, "unit": "%"},
      {"measurement": "inhibition in vivo at 30 mg/kg", "setting": "[3]", "value": 100, "unit": "%"},
      {"measurement": "inhibition in vivo at 30 mg/kg", "setting": "[4]", "value": 18, "unit": "%"}
    ]},
    {"molecule": "CC(C)(C)c1ccc(C(O)CCCN2CCC(C(O)(c3ccccc3)c3ccccc3)CC2)cc1", "note": "(centres unmarked) [Terfenadine, reference compound]", "values": [
      {"measurement": "inhibition at 10 µM", "setting": "[2]", "value": 48, "unit": "%"},
      {"measurement": "inhibition in vivo at 30 mg/kg", "setting": "[3]; [6]", "value": 100, "unit": "%"},
      {"measurement": "inhibition in vivo at 30 mg/kg", "setting": "[4]; [7]", "value": 27, "unit": "%"}
    ]}
  ]
}
